The target of assay [1] is T1, G6PD (Homo sapiens, UniProt P11413). The experiment in a line: 6-pg levels in HepG2 cells (cellular target engagement). Details: endogenous in cells. It is filed as cell-based. To be noted: for dose-dependent decrease in 6-pg levels: dose-response. The text has this:
Direct Monitoring of 6-pg in cells. The metabolite 6-phosphogluconate (6-pg) is a downstream product of the G6PD reaction, and is believed to be made predominantly by the oxidative pentose phosphate pathway in mammalian cells. Though the direct product of G6PD is the lactone form of 6-pg (6-phosphogluconolactone), this product is believed to readily hydrolyze to 6-pg under cellular conditions, and is therefore difficult to detect. Thus, to directly monitor the G6PD reaction, methods for measuring 6-pg levels in intact cells were developed.
To explore this possibility further, more specific assays for evaluating G6PD cellular target engagement were developed. […] These included the hepatocellular carcinoma line, HepG2, which was selected as the primary cell for direct 6-pg monitoring. Consistent with the oxPPP being the primary source of 6-pg in these cells, G6PD knockout led to nearly complete 6-pg loss (FIGS. 1B and 1C).
(§1) For analysis of intracellular metabolites by LC-MS, adherent cell lines were plated and grown to 80% confluency in 6-well plates. At the start of an experiment, the appropriate media was added to cells, which included isotope tracers and/or chemical inhibitors as described. Cells were incubated at 37° C. at 5% CO2 for 2 hours (unless otherwise noted). For all experiments involving small molecule agents, DMSO concentrations were <0.2%. After 2 hours, media was removed by aspiration and metabolome extraction was performed (without any wash steps) by the addition of 800 µL of ice cold solvent (40:40:20 acetonitrile:methanol:water + 0.5% formic acid). After a 1-minute incubation on ice, the extract was neutralized by the addition of NH4HCO3 (15% w/v). The samples were incubated at -20° C. for approximately 30 minutes, at which point the wells were scraped and the extract transferred to Eppendorf tubes and centrifuged (15 minutes, 16000 rpm, 4° C.). The resulting supernatant was frozen on dry ice and kept at -80° C. until LC-MS analysis.
Metabolites were analyzed using a quadrupole-orbitrap mass spectrometer (Q Exactive Plus, Thermo Fisher Scientific, Waltham, MA), coupled to hydrophilic interaction chromatography (HILIC) with LC separation on a XBridge BEH Amide column (Waters), or a stand-alone orbitrap (Thermo-Fisher Exactive) coupled to reversed-phase ion-pairing chromatography with LC separation on a HSS-T3 column (Waters). Both mass spectrometers were operating in negative ion mode and were coupled to their respective liquid chromatography methods via electrospray-ionization. Detailed analytical conditions have been previously described.
Target sequence in this assay (P11413 whole entry): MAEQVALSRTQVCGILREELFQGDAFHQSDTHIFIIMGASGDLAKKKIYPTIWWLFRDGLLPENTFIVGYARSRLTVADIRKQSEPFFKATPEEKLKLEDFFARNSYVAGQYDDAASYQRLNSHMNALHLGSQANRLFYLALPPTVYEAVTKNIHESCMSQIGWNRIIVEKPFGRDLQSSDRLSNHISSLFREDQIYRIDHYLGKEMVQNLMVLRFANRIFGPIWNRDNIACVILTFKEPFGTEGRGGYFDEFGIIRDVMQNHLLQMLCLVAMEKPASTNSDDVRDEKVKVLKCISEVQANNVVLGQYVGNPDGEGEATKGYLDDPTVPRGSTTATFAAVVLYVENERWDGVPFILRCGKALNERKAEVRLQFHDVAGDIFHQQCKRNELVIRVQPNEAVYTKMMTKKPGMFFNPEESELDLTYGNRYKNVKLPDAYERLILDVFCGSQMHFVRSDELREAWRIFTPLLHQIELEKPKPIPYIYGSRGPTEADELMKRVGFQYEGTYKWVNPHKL

Assay [2] deals with T1, G6PD. Nature of the assay: 2H transfer from 1-2H-glucose to NADPH active hydride and C16:0 in HCT116 cells. It is filed as cell-based. Details: endogenous in cells; host or cells: HCT116. The note with it: for dose-dependent decrease in 2H transfer from 1-2H-glucose to NADPH's active hydride: HCT116 cells, dose-response.
Excerpt: Direct Monitoring of NADPH Produced by the G6PD Reaction. […] NADPH production is compartmentalized, and occurs through reduction of its redox partner NADP^+. G6PD is one of the main enzymes that generates NADPH, and catalyzes the transfer of electrons (in the form of hydride) from glucose-6-phosphate to NADP^+. By installing a deuterium at the “one” position of glucose (1-^2H-glucose), the transfer of that deuterium to the active hydride of NADPH via glucose-6-phosphate can be specifically monitored. Also, a major use of cytosolic NADPH is fat synthesis. Transfer of ^2H from glucose via NADPH into free palmitate (C16:0) requires two NADPH per two-carbon unit addition during its synthesis.
Next, G6PD mediated hydride transfer to NADPH was directly monitored. Specifically, transfer of deuterium from 1-^2H-glucose, via glucose-6-phosphate, to the NADPH’s active hydride was monitored (FIG. 1B). […] The impacted step was G6PD, as no change in substrate (G6P) labeling was observed (FIG. 1E). A major use of cytosolic NADPH is fat synthesis. Transfer of ^2H from glucose via NADPH into palmitate (C16:0), which requires two NADPH per 2-carbon unit addition during its synthesis, was quantified (FIG. 1B).
For all experiments involving stable isotope tracers (e.g., 1-^2H-glucose), the isotope tracer nutrient was substituted for unlabeled nutrient at the same concentration normally found in the base media for a given cell type (e.g., DMEM for HCT116, RPMI for T cells, etc.). In addition, dialyzed FBS was used as a supplement in place of FBS.
Cytosolic NADPH sources were traced, and redox active hydride labeling was calculated, using a previously described strategy. 1-^2H-glucose (which directly traces G6PD) or 3-^2H-glucose (which directly traces PGD) were used for tracing oxPPP contribution to NADPH; 4-^2H-glucose for ME1; [2,3,3,4,4-^2H5]-glutamine, for both ME1 and IDH1; and D2O, to account for solvent exchange.
as §1
Target sequence in this assay (P11413 whole entry): as above

Assay [3] has as its target T1, G6PD. Nature of the assay: G6PD enzymatic activity by LC-MS (6-pg production). In kind it is biochemical. More on the design: Partially truncated human G6PD (residues 28-515, Uniprot ID P11413); His6 with thrombin cleavage site (N, cleaved yes); made in house; host or cells: Escherichia coli BL21(DE3)pLysS. The note with it: orthogonal LC-MS assay. The procedure:
Aliquots of reaction mixture were collected at indicated time points and rapidly quenched by diluting (1:5) into methanol precooled on dry ice. The mixtures were centrifuged at 13,000 rcf for 20 minutes at 4° C., and the resulting supernatants were diluted (1:20) into 40:40:20 methanol/ acetonitrile/ water and analyzed by LC-MS.
Target sequence in this assay (P11413 28-515): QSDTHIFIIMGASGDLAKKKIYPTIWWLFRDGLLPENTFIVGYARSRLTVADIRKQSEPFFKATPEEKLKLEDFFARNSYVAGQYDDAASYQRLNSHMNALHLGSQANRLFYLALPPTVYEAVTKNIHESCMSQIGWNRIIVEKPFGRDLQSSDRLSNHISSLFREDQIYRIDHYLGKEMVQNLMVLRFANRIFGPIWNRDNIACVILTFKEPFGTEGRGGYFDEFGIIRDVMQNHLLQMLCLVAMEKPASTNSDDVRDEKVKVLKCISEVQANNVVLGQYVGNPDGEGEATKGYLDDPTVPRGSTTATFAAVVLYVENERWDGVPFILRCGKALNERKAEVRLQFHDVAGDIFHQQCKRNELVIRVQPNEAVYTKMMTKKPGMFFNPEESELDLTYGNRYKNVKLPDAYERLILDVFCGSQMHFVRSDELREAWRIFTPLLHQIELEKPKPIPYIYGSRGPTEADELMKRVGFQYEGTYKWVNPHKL

Assay [4] deals with T1, G6PD. The experiment in a line: G6PD enzymatic activity by diaphorase-coupled assay.
Target sequence in this assay (P11413 28-515): as above
The target of assay [5] is T1, G6PD. Nature of the assay: Cellular thermal shift assay (CETSA) in HepG2 lysates. In kind it is binding. Details: endogenous in cells. The note with it: up to 56° C. As to the method:
Lysates from HepG2 cells at 75% confluence were isolated with 0.5% Triton in TBS (20 mM, Tris pH 7.4, 150 mM NaCl) for 30 min on ice, pre-cleared by centrifugation and used for thermal shift assay as described 49. Briefly, inhibitor or DMSO control was added to lysates at indicated concentration and incubated for 30 min on ice followed by 3 min heating at 47° C., 50° C., 53° C., and 56° C. in a thermal cycler. After heating, tubes were cooled at room temperature for 3 min and insoluble fraction removed by centrifugation at 17,000 g for 20 min. The soluble fraction was separated by SDS-PAGE, transferred to PVDF membrane, and immunoblotted using indicated antibodies at a dilution of 1:2000. Blots were developed by chemiluminescence and imaged using LI-COR C-DiGit Western Blot Scanner. Two independent experiments were performed. Signal intensity of proteins from immunoblots was quantified using Image Studio version 5.2 for C-DiGit Scanner, and bands were normalized to signal intensity of the 47° C. treated samples. Relative signal intensities were plotted as bar graph relative to the DMSO treated control.
Target sequence in this assay (P11413 whole entry): as the sequence (P11413 whole entry) above

Where [6] appears, read: Normalized in vitro IC50, Table 1A, diaphorase-coupled biochemical assay, normalization to an intraplate control.
Where [7] appears, read: Normalized in vitro IC50, Table 1, diaphorase-coupled biochemical assay, normalization to an intraplate control.

The structures appear in SMILES notation. Where two headings read alike, the source gives them in different places.

For the molecule `OC[C@H]1O[C@@H](Oc2cc(O)cc(/C=C/c3ccc(O)cc3)c2)[C@H](O)[C@@H](O)[C@@H]1O` [polydatin], the 6-pg levels entry at G6PD [1] (50 µM, 2 hours) is given as “failed to decrease”. Moreover, on G6PD [2] (50 µM, 2 hours), the “NADPH active hydride labeling” value is “failed to decrease”.

Regarding `CN(c1cccc(C#N)c1)c1ncc2c(n1)CCCC2=O` [neg-ctrl, 3-[methyl(5-oxo-5,6,7,8-tetrahydroquinazolin-2-yl)amino]benzonitrile], on G6PD [3], the “6-pg production by recombinant human G6PD” value is given as “did not”. The “dose-dependent decrease in 6-pg levels” value on G6PD [1] (HepG2 cells) was “not”. For the same molecule, the “dose-dependent decrease in 2H transfer from 1-2H-glucose to NADPH's active hydride” value at G6PD [2] is recorded as “not”. Further, the “activity against G6PD” value at G6PD [4] (in vitro) is listed as “lacked any activity against G6PD”.

`N#Cc1cc(Nc2ncc3c(n2)CCCCC3=O)cc(OCc2ccc(Cl)cc2)c1` [Compound 0045] gave an IC50 against G6PD [4] of 1 to 1000 µM.

`N#Cc1cc(Nc2ncc3c(n2)CCCCC3(F)F)cs1` [Compound 0031] gave an IC50 at G6PD [4] of 1 to 1000 µM.

In turn, `O=C1CCCCc2nc(Nc3ccccc3Cl)ncc21` [Compound 0016] registered a half-maximal inhibitory concentration (IC50) at G6PD [4] (setting [6]) of 1 to 1000 µM.

`O=C1CCCCc2nc(Nc3cc(Cl)cc(C(F)(F)F)c3)ncc21` [Compound 0027] had an IC50 at G6PD [4] of 1 to 1000 µM.

Consider `N#Cc1cc(Nc2ncc3c(n2)CCCc2cnoc2-3)cs1` [Compound 0052], for which the IC50 against G6PD [4] lay in the range of 1 to 1000 µM.

In the case of `O=C1CCCCc2nc(Nc3ccc(SC(F)(F)F)cc3)ncc21` [Compound 0009], the 50% inhibitory concentration (IC50) at G6PD [4] (setting [6]) fell in the range of 1 to 1000 µM.

As to `O=C(Nc1ncc2c(n1)CCCC2=O)c1ccccc1` [KG-0258-0], the half-maximal inhibitory concentration (IC50) at G6PD [4] (setting [7]) is more than 1000 µM.

In turn, `O=C1CCCCc2nc(Nc3ccccc3F)ncc21` [Compound 0015] registered an IC50 on G6PD [4] (setting [6]) of 1 to 1000 µM.

Regarding `O=C1CCCc2nc(Nc3ccc4[nH]ccc4c3)ncc21` [KG-0168-0], the half-maximal inhibitory concentration (IC50) at G6PD [4] (setting [7]) fell in the range of 1 to 1000 µM.

On G6PD [4] (setting [6]), `N#CCc1cccc(Nc2ncc3c(n2)CCCCC3=O)c1` [Compound 0024] came in with an IC50 of 1 to 1000 µM.

As for `C[C@]12CC[C@H](O)CC1=CC[C@@H]1[C@@H]2CC[C@]2(C)C(=O)CC[C@@H]12` [DHEA, dehydroepiandrosterone], the 6-pg level result at G6PD [1] (HepG2 cells, 100 µM, 2 hours) is “did not impact the 6-pg level”. Also, the “dose-dependent decrease in 6-pg levels” value on G6PD [1] (HepG2 cells) is “not”. Further, at G6PD [2] (100 µM, 2 hours), the “C16:0 labeling” value is “did not decrease” and the “NADPH active hydride labeling” value is listed as “did not decrease”. Besides, the “dose-dependent decrease in 2H transfer from 1-2H-glucose to NADPH's active hydride” value on G6PD [2] is “not”. On G6PD [5], the “thermal stabilization of G6PD” value was “not”. In addition, the IC50 on G6PD [4] (IC50 (half-maximal inhibitory constant) against human G6PD, coupled enzymatic assay, recombinant human enzyme) was approximately 9.5 µM.

Consider `CO/N=C1\CCCc2nc(Nc3cccc(C#N)c3)ncc21` [KG-0260-0], for which the 50% inhibitory concentration (IC50) against G6PD [4] was more than 1000 µM.

With `C#CCC1(COc2cc(C#N)cc(Nc3ncc4c(n3)CCCCC4=O)c2)N=N1` [Compound 0095], the IC50 on G6PD [4] is more than 1000 µM.

The values above are taken from patent US20230348401A1, “Inhibitors of Glucose-6-phosphate Dehydrogenase and Uses Thereof” (The Trustees of Princeton University, priority 2020, published 2023).
